# Laboratory results published in ChEMBL document CHEMBL1201862, “PubChem BioAssay data set” (2004).
# Calls of active or inactive are those of the source.
# Assays:
# [1] = NIH3T3 cell viability loss – ATP luminescence, mouse fibroblasts, counter-screen, dose response (AID 2010); assay type: functional, cell-based;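 further: cells exposed to compound for about 90 hours before reading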
# cells [2] = assay type: functional
# [3] = Trypanosoma cruzi growth suppression in host cells – NIH3T3 host cells, beta-gal luminescence, confirmation (AID 2044); assay type: functional, cell-based;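 further: intracellular parasites grown in NIH/3T3 mouse fibroblasts as host cells; luminescent beta-galactosidase reporter signal from transgenic T. cruzi replicating inside host cells; inhibitors lower the luminescence signal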
# [4] = THP-1 cell cytotoxicity, dose response, cytotoxicity control for non-replicating M. tuberculosis project (AID 489025); assay type: functional
# [5] = molecular target: Eukaryotic translation initiation factor 4E (Mus musculus, UniProt P63073); assay: blockers of eIF4G binding by eIF4E – biochemical, TR-FRET, dose response (AID 855); assay type: functional;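 further: potency for disrupting eIF4E binding to eIF4GI seen as loss of FRET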
# Eukaryotic translation initiation factor 4E, sequence (P63073 whole entry): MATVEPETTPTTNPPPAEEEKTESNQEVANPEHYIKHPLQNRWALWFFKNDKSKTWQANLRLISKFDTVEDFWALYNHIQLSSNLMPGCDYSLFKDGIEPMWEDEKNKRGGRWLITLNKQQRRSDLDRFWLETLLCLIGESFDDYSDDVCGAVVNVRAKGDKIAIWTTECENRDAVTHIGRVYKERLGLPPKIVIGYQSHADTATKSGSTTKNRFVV
# [6] = molecular target: Induced myeloid leukemia cell differentiation protein Mcl-1 (Homo sapiens, UniProt Q07820); assay type: functional
# Induced myeloid leukemia cell differentiation protein Mcl-1, sequence (Q07820 whole entry): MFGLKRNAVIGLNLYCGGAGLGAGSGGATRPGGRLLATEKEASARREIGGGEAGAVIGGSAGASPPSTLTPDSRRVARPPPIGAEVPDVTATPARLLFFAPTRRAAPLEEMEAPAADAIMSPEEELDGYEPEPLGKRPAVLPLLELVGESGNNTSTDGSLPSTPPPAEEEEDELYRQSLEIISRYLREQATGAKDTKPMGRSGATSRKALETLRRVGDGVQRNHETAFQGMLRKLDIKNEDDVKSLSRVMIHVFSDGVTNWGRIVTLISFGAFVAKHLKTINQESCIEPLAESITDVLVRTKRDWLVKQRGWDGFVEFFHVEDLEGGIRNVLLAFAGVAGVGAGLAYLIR
# Genome polyprotein = Genome polyprotein (dengue virus type 2, UniProt P29990); assay: flavivirus cap methylation enzyme inhibition – biochemical, confirmation dose response, primary screen (AID 588689); assay type: functional
# Genome polyprotein, sequence (P29990 2492-3391 limits assumed): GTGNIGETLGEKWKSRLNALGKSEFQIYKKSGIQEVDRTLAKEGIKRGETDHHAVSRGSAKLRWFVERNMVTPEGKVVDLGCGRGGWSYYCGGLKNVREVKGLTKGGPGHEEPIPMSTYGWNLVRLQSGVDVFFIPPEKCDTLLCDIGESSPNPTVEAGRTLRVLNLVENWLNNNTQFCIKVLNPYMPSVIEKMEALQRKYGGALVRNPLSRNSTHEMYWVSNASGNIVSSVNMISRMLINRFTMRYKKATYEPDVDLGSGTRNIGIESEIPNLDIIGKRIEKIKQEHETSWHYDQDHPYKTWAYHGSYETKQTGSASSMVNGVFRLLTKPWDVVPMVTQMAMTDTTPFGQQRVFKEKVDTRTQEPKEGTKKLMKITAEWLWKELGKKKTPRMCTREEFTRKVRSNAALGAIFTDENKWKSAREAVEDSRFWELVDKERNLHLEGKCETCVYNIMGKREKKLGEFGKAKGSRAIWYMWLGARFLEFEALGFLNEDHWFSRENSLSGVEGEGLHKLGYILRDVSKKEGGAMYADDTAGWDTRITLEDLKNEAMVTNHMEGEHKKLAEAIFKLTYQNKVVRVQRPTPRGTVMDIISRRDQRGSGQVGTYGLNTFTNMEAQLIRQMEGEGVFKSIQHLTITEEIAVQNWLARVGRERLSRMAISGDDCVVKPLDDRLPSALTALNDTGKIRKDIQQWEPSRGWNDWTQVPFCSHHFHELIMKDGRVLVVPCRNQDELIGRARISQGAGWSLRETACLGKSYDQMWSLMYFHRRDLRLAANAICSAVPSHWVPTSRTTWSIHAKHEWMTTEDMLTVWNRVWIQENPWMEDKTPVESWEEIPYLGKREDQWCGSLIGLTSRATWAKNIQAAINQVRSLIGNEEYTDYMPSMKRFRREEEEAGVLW
# [7] = Luminescence Cell-Based Dose Response HTS to Identify Activators of Luciferase Translation or Activity in H4 […] Cells. [Related pubchem assays: 1829 (Project Summary), 1814 (Primary HTS)]; assay type: functional
# [8] = Luminescence Cell-Based Dose Confirmation HTS to Identify Activators of 5'UTR Stem-Loop Driven Alpha-Synuclein mRNA Translation in H4 Neuroglioblastoma Cells. [Related pubchem assays: 1829 (Project Summary), 1814 (Primary HTS)]; assay type: functional
# H4 = assay: Luminescence Cell-Based Dose Response HTS to Identify Activators of 5'UTR Stem-Loop Driven Prion Protein mRNA Translation in H4 Neuroglioblastoma Cells. [Related pubchem assays: 1829 (Project Summary), 1814 (Primary HTS)]; assay type: functional; conditions: Homo sapiens
# [9] = molecular target: Dual specificity tyrosine-phosphorylation-regulated kinase 1A (Rattus norvegicus, UniProt Q63470); assay type: biochemical, Homo sapiens
# [10] = molecular target: DNA dC->dU-editing enzyme APOBEC-3A (Homo sapiens, UniProt P31941); assay: Dose Response confirmation of small molecule APOBEC3A DNA Deaminase Inhibitors via a fluorescence-based single-stranded DNA deaminase assay. [Related pubchem assays (depositor defined):AID493011, AID493024]; assay type: functional
# DNA dC->dU-editing enzyme APOBEC-3A, sequence (P31941 whole entry): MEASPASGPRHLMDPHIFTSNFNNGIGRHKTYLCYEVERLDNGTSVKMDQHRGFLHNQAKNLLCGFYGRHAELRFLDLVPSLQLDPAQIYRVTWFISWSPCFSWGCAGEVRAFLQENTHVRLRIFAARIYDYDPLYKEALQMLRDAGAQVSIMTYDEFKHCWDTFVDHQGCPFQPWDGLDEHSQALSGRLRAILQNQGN
# [11] = molecular target: DNA dC->dU-editing enzyme APOBEC-3G (Homo sapiens, UniProt Q9HC16); assay type: functional;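 further: Dose-response counterscreen measuring inhibition of APOBEC3G DNA deaminase activity, run while confirming APOBEC3A inhibitors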
# DNA dC->dU-editing enzyme APOBEC-3G, sequence (Q9HC16 whole entry): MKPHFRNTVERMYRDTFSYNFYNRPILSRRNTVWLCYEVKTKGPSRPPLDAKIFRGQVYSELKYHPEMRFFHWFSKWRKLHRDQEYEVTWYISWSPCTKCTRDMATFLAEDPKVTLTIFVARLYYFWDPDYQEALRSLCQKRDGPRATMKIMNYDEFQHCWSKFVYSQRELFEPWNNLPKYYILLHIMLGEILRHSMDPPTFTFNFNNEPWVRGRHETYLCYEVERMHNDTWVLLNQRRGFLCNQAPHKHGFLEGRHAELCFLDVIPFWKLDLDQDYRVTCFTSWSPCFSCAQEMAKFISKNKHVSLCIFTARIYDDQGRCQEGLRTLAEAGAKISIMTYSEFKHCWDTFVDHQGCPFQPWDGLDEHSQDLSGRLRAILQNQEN
# cells [12] = assay: cells
# [13] = NIH-3T3 fibroblast cytotoxicity, dose response, cytotoxicity control, cell-based, fluorescence, Alamar Blue, secondary assay (AID 2327); assay type: functional;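 further: NIH-3T3 mouse fibroblasts cultured with fluconazole at 8 µg/mL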
# [14] = fluconazole-exposed Candida albicans growth modulators – fluorescence, retest, confirmation (AID 2467); assay type: functional, cell-based
# INS1 = assay: INS-1E survival protection against cytokine death – cell-based, luminescence, retest, dose response (AID 449756); assay type: functional; conditions: Rattus norvegicus;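 further: cell death triggered by IL-1 beta plus TNF-alpha plus IFN-gamma mixture; protective hits raise ATP signal compared with cytokine alone wells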
# [15] = HEK-293T cell viability reduction – luminescence, B-cell screen hits, cytotoxicity control for BCR NF-kB inhibitor project, dose response (AID 489021); assay type: functional, cell-based;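 further: HEK-293T cells carrying an NF-kB luciferase reporter; cells exposed to compound for about 14 hours before viability readout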
# HEK293 = assay: EBV LMP1 TES2 canonical NF-kB signalling blockers – cell-based, HEK293, luciferase, cherry-pick, dose response (AID 588343); assay type: functional; conditions: Homo sapiens
# cells [16] = assay: cells; remark: listed apart in the source
# [17] = molecular target: T1, Heat shock factor protein 1 (Mus musculus, UniProt P38532); assay: decrease of HSF1-responsive luciferase luminescence – cell-based, NIH3T3, dose retest, confirmation (AID 2382); assay type: functional;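 further: NIH3T3 fibroblasts with HSF1-driven luciferase reporter stressed by proteasome inhibitor MG132; luminescence from HSF1-driven luciferase expression after 8 hours of MG132 stress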
# T1 sequence (P38532 whole entry): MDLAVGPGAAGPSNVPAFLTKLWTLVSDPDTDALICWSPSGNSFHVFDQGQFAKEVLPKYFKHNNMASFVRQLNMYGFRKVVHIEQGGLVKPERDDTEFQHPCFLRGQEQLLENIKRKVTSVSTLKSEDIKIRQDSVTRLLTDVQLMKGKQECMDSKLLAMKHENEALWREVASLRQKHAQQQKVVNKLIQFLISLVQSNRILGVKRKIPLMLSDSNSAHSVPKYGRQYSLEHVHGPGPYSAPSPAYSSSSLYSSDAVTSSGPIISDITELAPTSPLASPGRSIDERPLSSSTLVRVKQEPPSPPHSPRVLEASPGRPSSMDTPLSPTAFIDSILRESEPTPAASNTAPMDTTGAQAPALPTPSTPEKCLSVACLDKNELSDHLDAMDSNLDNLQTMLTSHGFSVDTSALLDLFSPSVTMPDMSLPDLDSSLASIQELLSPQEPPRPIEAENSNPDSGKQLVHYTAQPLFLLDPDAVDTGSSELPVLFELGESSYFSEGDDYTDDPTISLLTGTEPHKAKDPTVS
# Leucine aminopeptidase = molecular target: T2, Leucine aminopeptidase (Plasmodium falciparum 3D7, UniProt Q8IL11); assay: P. falciparum M17LAP inhibitors, primary screen, biochemical, fluorogenic H-Leu-NHMec substrate, 1536-well (AID 1619); assay type: functional
# T2 sequence (Q8IL11 whole entry): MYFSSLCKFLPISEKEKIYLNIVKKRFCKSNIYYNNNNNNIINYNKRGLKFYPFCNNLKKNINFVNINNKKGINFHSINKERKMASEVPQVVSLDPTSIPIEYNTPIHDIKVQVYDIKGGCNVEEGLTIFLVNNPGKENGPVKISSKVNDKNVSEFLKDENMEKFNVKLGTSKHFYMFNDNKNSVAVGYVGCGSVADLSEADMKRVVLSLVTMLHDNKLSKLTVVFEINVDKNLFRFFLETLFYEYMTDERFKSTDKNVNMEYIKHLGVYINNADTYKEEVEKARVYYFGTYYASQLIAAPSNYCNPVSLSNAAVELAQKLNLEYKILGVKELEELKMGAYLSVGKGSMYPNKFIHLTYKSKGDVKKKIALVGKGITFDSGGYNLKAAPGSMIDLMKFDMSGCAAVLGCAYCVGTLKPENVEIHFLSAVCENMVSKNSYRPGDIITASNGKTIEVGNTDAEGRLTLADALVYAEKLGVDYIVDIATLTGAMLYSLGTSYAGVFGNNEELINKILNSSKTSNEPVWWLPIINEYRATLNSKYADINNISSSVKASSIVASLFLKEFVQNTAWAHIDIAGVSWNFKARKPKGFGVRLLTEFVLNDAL
# Large T antigen = Large T antigen (Simian virus 40, UniProt P03070); assay type: functional, Betapolyomavirus macacae;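 further: Confirmatory-stage PubChem screen for compounds that inhibit SV40 T antigen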
# Large T antigen, sequence (P03070 whole entry): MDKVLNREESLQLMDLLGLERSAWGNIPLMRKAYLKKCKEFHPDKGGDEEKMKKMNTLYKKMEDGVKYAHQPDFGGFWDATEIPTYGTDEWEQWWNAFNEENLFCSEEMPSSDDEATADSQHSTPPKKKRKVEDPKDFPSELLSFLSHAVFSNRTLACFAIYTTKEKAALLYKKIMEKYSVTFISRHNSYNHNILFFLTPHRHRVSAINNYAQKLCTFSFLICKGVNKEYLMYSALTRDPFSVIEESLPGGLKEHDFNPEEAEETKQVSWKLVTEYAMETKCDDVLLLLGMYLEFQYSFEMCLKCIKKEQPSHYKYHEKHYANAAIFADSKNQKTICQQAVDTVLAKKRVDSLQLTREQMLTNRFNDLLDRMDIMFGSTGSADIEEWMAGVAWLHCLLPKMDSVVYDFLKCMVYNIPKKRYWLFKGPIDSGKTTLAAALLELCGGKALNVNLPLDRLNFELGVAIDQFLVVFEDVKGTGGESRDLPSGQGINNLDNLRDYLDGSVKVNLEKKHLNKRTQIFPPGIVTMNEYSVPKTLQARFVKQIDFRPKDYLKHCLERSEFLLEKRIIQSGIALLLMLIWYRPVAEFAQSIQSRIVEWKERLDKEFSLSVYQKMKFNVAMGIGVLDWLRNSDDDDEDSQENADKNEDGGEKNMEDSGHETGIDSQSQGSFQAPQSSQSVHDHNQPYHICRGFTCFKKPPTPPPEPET
# [18] = viability of uninfected HEp-2 cells – cell-based, HTS, cytotoxicity control for RSV inhibitor project, dose response (AID 2410); assay type: functional; conditions: human respiratory syncytial virus
# Vero = assay: cells; assay type: functional, cell-based; conditions: Chlorocebus sabaeus
# [19] = molecular target: T3, DNA repair protein RAD52 homolog (Homo sapiens, UniProt P43351); assay type: functional, biochemical
# T3 sequence (P43351 whole entry): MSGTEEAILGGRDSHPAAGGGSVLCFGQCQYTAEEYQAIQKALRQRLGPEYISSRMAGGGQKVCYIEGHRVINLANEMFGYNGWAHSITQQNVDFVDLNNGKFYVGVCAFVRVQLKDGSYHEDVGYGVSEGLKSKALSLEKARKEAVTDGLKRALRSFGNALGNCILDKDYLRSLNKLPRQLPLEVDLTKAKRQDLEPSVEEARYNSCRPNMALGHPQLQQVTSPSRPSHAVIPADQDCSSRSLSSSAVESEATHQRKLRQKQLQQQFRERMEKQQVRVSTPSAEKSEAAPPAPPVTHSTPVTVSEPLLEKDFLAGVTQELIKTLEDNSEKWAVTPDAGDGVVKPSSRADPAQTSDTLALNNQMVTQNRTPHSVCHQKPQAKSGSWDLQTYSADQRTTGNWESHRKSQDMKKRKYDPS
# [20] = general cell-killing toxicity readout – plate reader, dry powder samples, cytotoxicity control for PAX8 inhibitor project, dose response (AID 743021); assay type: functional, cell-based
structure (smiles),measurement,setting,value
C=CCc1cc(Cl)ccc1OCCCn1ccnc1,EC50,[1],> 60 µM (not active)
same,IC50,cells [2],16.7 µM (active)
same,EC50,[3],2.12 µM (active)
same,CC50,[4],> 40 µM (active)
CC(=O)Nc1ccc(C(=O)Nc2cccc(-c3cnc4ccccc4n3)c2)cc1,IC50,[5],50 µM (inactive)
same,IC50,[6],25.5 µM (not active)
CC(NC(=O)CSc1nnc(CC(=O)Nc2ccc(Cl)c(Cl)c2)n1C)c1ccccc1 (stereo unspecified),IC50,[5],> 64 µM (inactive)
Cc1ccc(C)c(S(=O)(=O)Nc2ccccc2C(=O)Nc2ccc(S(=O)(=O)Nc3ncccn3)cc2)c1,IC50,Genome polyprotein,> 100 µM (active)
Nc1nc(N)nc(-c2ccc(Cl)cc2)n1,EC50,[7],> 120 µM (not active)
same,EC50,[8],12.2 µM (active)
same,EC50,H4,> 120 µM (not active)
same,AC50,[9],10.6 µM (active)
COc1cccc(CNC(=O)c2cccc(S(=O)(=O)N3CCN(C)CC3)c2)c1,IC50,[10],5.44 µM (active)
same,IC50,[11],8.69 µM (active)
Cc1ncc(CN2CCCC(CCC(=O)NCc3ccc(F)c(F)c3)C2)s1 (stereo unspecified),EC50,[1],> 60 µM (inconclusive)
same,EC50,[3],< 0.1 µM (active)
same,EC50,cells [12],0.14 µM (active)
COc1cc(CN2CCCC(CCC(=O)NCc3ccc(C)o3)C2)cc2c1OCO2 (stereo unspecified),EC50,[1],> 60 µM (not active)
same,EC50,[3],< 0.1 µM (active)
same,EC50,cells [12],0.015 µM (active)
COc1ccc(-[n+]2c(-c3ccc(Br)cc3)cn3c2CCc2ccccc2-3)cc1,EC50,[13],> 160 µM (inactive)
same,EC50,[1],> 30 µM (not active)
same,EC50,[3],0.424 µM (active)
same,EC50,[14],1.62 µM (active)
same,EC50,[7],> 120 µM (not active)
same,EC50,[8],> 120 µM (not active)
same,AC50,INS1,2.15 µM (active)
same,EC50,H4,> 120 µM (not active)
same,IC50,[15],> 80 µM (inactive)
Cc1nc(Nc2c(Cl)cccc2Cl)sc1C(=O)Nc1ccccc1,IC50,[15],> 80 µM (inactive)
Cc1ccc(SCCOCCN2CC(C)OC(C)C2)cc1 (stereo unspecified),EC50,[1],> 60 µM (not active)
same,EC50,[3],< 0.1 µM (active)
same,EC50,cells [12],0.007 µM (active)
COc1ccc(OCc2cccc(C(=O)NN)c2)cc1,IC50,[15],> 80 µM (inactive)
same,AC50,HEK293,3.57 µM (active)
COC(=O)CSc1nnc(-c2sc3ccccc3c2Cl)o1,IC50,[15],> 80 µM (inactive)
COc1ccc(S(=O)(=O)N2CCN(CCO)CC2)cc1-c1nnc2c3ccccc3c(C)nn12,IC50,cells [16],4.08 µM (active)
same,EC50,[17],> 195 µM (not active)
COc1ccc(C2(O)CCN(CC(=O)Nc3nc(-c4ccccc4)cs3)CC2)cc1,IC50,cells [2],16.7 µM (active)
same,CC50,[4],> 40 µM (active)
O=C(O)/C=C/C(=O)Nc1ccc(Oc2ccc(NC(=O)/C=C/C(=O)O)cc2)cc1,IC50,Leucine aminopeptidase,14.8 µM (active)
same,IC50,Large T antigen,> 100 µM (active)
Cc1ccc(C)c(NC(=O)C2CC(Cl)=CCC2C(=O)O)c1 (stereo unspecified),IC50,Leucine aminopeptidase,18.6 µM (active)
COc1ccc(NC(=O)c2cc(-c3ccco3)nc3ccccc23)cn1,IC50,[10],16.9 µM (active)
same,IC50,[11],22.5 µM (active)
O=C(O)CSc1ccccn1,IC50,[5],> 64 µM (inactive)
O=C(O)C1CC=CCC1C(=O)Nc1ccc(S(=O)(=O)N2CCCc3ccccc32)cc1 (stereo unspecified),IC50,cells [16],2.91 µM (active)
same,CC50,[18],15.7 µM (active)
same,IC50,Vero,16.4 µM (active)
COc1ccc(CCOC(=O)c2ccc(NC(=O)CC#N)cc2)cc1,IC50,cells [16],9.43 µM (active)
same,CC50,[18],> 50 µM (active)
CN(Cc1ccc(Cl)c(Cl)c1)C(=O)C1=CC=CN2CCS(=O)(=O)N=C12,IC50,[10],8.45 µM (active)
same,IC50,[11],12.2 µM (active)
C[C@]12CC[C@H](O)CC1=CCC1C2CC[C@@]2(C)C1CC[C@@H]2NC(=O)[C@@H](N)Cc1c[nH]cn1 (stereo partly specified),AC50,[19],0.952 µM (active)
CC(=O)c1ccc(Nc2nc(C(N)Cc3ccc(N)cc3)cs2)cc1 (stereo unspecified),AC50,[19],30.4 µM (active)
CCOc1ccc2ccccc2c1/C=N\NC(=O)OC,AC50,[20],48.5 µM (active)
